# Values of other authors as cited in US20070021352A1, “PREVENTION AND TREATMENT OF HEARING DISORDERS” (Cypress Bioscience, Inc., priority 2005, published 2007).
# Columns and labels:
# [1] = tested on: cochlea; conditions: guinea pig model; local administration
# [2] = elderly patients; preliminary results
# [3] = normal, healthy volunteers; daily ingestion of 6.7 mmol; rifle noise six days per week for eight weeks; vs placebo (sodium aspartate)
# [4] = humans; daily ingestion of 122 mg for 10 days
smiles,measurement,setting,value
"CCN(CC)CCn1c(=O)c(Cc2ccc(OC)cc2)nc2ccccc21 [caroverine, 1-[2-(diethylamino)ethyl]-3-[(4-methoxyphenyl)methyl]-2-(1H)-quinoxalinone]",protection of cochlea from noise trauma,[1],protection of cochlea from noise trauma
"CN(C)CCCC1(c2ccc(F)cc2)OCc2cc(C#N)ccc21 (stereo not shown) [citalopram, 1-[3-(dimethylamino)propyl]-1-(4-fluorophenyl)-1,3-dihydro-5-isobenzofurancarbonitrile]",impact on auditory processes,[2],positive impact on auditory processes in the elderly
N[C@@H](CC(=O)[O-])C(=O)[O-].[Mg+2] [magnesium aspartate],permanent threshold shift,[3],significant effect on permanent threshold shift
[Mg] [magnesium],noise-induced temporary threshold shift,[4],protect against noise-induced temporary threshold shift
